Assay results published in publication PMC10038056, “Synthesis, biological evaluation and theoretical studies of (E)-1-(4-sulfamoyl-phenylethyl)-3-arylidene-5-aryl-1H-pyrrol-2(3H)-ones as human carbonic anhydrase inhibitors” (Journal of Enzyme Inhibition and Medicinal Chemistry, 2023).

Experiments:
hCA XII = hCA XII (Homo sapiens, UniProt O43570); test: Stopped-flow CO2 hydrase assay, hCA XII
Protocol: (§1) (AAZ), a commonly used sulphonamide inhibitor was used for comparing the inhibition data. The Inhibition effects of these compounds on enzyme activities were evaluated under in-vitro conditions. The CA catalysed CO2 hydration activity was measured using an Applied Photophysics stopped-flow instrument. […] In the same way, the uncatalyzed rates were analysed and deducted from the total measured rates. […] The inhibitor and enzyme solutions were preincubated at room temperature for 15 min prior to the experiment to promote the formation of the E-I complex. By employing nonlinear least-squares methods using PRISM 3 and the Cheng-Prusoff equation, the inhibition constants were determined, as was previously reported[18–20]^,[21] and indicate the average of at least three separate measurements that fall between the range of 5 and 10%.

hCA II = hCA II (Homo sapiens, UniProt P00918); test: Stopped-flow CO2 hydrase assay, hCA II
Protocol: as §1

hCA IX = hCA IX (Homo sapiens, UniProt Q16790); test: Stopped-flow CO2 hydrase assay, hCA IX
Protocol: as §1

hCA I = hCA I (Homo sapiens, UniProt P00915); test: Stopped-flow CO2 hydrase assay, hCA I
Protocol: as §1

[1] = stopped flow, mean from 3 assays, errors 5–10%

Sequence of hCA XII (O43570 25-354): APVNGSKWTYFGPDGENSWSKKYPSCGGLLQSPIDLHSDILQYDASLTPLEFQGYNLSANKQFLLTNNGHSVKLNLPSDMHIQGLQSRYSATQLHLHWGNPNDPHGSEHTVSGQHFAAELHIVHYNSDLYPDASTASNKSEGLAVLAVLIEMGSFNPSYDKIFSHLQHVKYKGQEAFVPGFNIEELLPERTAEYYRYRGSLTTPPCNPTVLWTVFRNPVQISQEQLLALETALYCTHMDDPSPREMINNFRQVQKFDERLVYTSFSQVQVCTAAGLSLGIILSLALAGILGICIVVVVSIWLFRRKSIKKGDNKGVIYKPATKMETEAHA
Sequence of hCA I (P00915 whole entry): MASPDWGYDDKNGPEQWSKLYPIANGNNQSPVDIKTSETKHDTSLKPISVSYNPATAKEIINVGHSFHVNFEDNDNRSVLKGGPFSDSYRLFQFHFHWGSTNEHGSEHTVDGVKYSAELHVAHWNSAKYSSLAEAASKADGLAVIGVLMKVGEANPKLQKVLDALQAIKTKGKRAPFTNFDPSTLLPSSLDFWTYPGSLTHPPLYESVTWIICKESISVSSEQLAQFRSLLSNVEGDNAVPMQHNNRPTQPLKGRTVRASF

| SMILES | Ki (hCA XII; [1]) | Ki (hCA II) | melting point | Ki (hCA IX) | Ki (hCA I; [1]) | Ki (hCA I; in µM) | Ki (hCA XII; in µM) |
| --- | --- | --- | --- | --- | --- | --- | --- |
| NS(=O)(=O)c1ccc(CCN2C(=O)/C(=C/c3ccc(Br)cc3)C=C2c2ccc(Cl)cc2)cc1 [Compound 3p, (E)-4-(2-(3-(4-bromobenzylidene)-5-(4-chlorophenyl)-2-oxo-2,3-dihydro-1H-pyrrol-1-yl)ethyl)benzenesulphonamide] | 0.0854 µM | 3850 nM | 176 to 177 °C | 74.3 nM | 5.87 µM | – | – |
| NS(=O)(=O)c1ccc(CCN2C(=O)/C(=C/c3ccc(Br)cc3)C=C2c2ccccc2)cc1 [Compound 3d, (E)-4-(2-(3-(4-bromobenzylidene)-2-oxo-5-phenyl-2,3-dihydro-1H-pyrrol-1-yl)ethyl)benzenesulphonamide] | 0.0898 µM | 1430 nM | 214 to 215 °C | 112 nM | 4.25 µM | – | – |
| CCc1ccc(C2=C/C(=C\c3ccccc3)C(=O)N2CCc2ccc(S(N)(=O)=O)cc2)cc1 [Compound 3i, (E)-4-(2-(3-benzylidene-5-(4-ethylphenyl)-2-oxo-2,3-dihydro-1H-pyrrol-1-yl)ethyl)benzenesulphonamide] | 0.0839 µM | 901 nM | 183 to 184 °C | 78.3 nM | 1.79 µM | – | – |
| CCc1ccc(C2=C/C(=C\c3ccc(Cl)cc3)C(=O)N2CCc2ccc(S(N)(=O)=O)cc2)cc1 [Compound 3k, (E)-4-(2-(3-(4-chlorobenzylidene)-5-(4-ethylphenyl)-2-oxo-2,3-dihydro-1H-pyrrol-1-yl)ethyl)benzenesulphonamide] | 0.0911 µM | 1620 nM | 186 to 187 °C | 102 nM | 5.93 µM | – | – |
| CCc1ccc(C2=C/C(=C\c3ccc(F)cc3)C(=O)N2CCc2ccc(S(N)(=O)=O)cc2)cc1 [Compound 3j, (E)-4-(2-(5-(4-ethylphenyl)-3-(4-fluorobenzylidene)-2-oxo-2,3-dihydro-1H-pyrrol-1-yl)ethyl)benzenesulphonamide] | 0.0662 µM | 296 nM | 185 to 186 °C | 71.4 nM | 0.836 µM | – | – |
| NS(=O)(=O)c1ccc(CCN2C(=O)/C(=C/c3ccccc3)C=C2c2ccccc2)cc1 [Compound 3a, (E)-4-(2-(3-benzylidene-2-oxo-5-phenyl-2,3-dihydro-1H-pyrrol-1-yl)ethyl) benzenesulphonamide] | 0.0621 µM | 368 nM | 167 to 168 °C | 93.8 nM | 0.634 µM | – | – |
| NS(=O)(=O)c1ccc(CCN2C(=O)/C(=C/c3ccc(F)cc3)C=C2c2ccc(Cl)cc2)cc1 [Compound 3n, (E)-4-(2-(5-(4-chlorophenyl)-3-(4-fluorobenzylidene)-2-oxo-2,3-dihydro-1H-pyrrol-1-yl)ethyl)benzenesulphonamide] | 0.0391 µM | 466 nM | 159 to 160 °C | 41.3 nM | 1.42 µM | – | – |
| NS(=O)(=O)c1ccc(CCN2C(=O)/C(=C/c3ccc(Cl)cc3)C=C2c2ccccc2)cc1 [Compound 3c, (E)-4-(2-(3-(4-chlorobenzylidene)-2-oxo-5-phenyl-2,3-dihydro-1H-pyrrol-1-yl)ethyl)benzenesulphonamide] | 0.0765 µM | 718 nM | 192 to 193 °C | 108 nM | 3.25 µM | – | – |
| CC(C)(C)c1ccc(C2=C/C(=C\c3ccc(Br)cc3)C(=O)N2CCc2ccc(S(N)(=O)=O)cc2)cc1 [Compound 3t, (E)-4-(2-(3-(4-bromobenzylidene)-5-(4-(tert-butyl)phenyl)-2-oxo-2,3-dihydro-1H-pyrrol-1-yl)ethyl)benzenesulphonamide] | 0.308 µM | 4690 nM | 204 to 205 °C | 391 nM | 9.27 µM | 9.3 µM | – |
| CC(C)(C)c1ccc(C2=C/C(=C\c3ccccc3)C(=O)N2CCc2ccc(S(N)(=O)=O)cc2)cc1 [Compound 3q, (E)-4-(2-(3-benzylidene-5-(4-(tert-butyl)phenyl)-2-oxo-2,3-dihydro-1H-pyrrol-1-yl)ethyl)benzenesulphonamide] | 0.396 µM | 1650 nM | 183 to 184 °C | 468 nM | 8.5 µM | 8.5 µM | – |
| NS(=O)(=O)c1ccc(CCN2C(=O)/C(=C/c3ccc(Cl)cc3)C=C2c2ccc(Cl)cc2)cc1 [Compound 3o, (E)-4-(2-(3-(4-chlorobenzylidene)-5-(4-chlorophenyl)-2-oxo-2,3-dihydro-1H-pyrrol-1-yl)ethyl)benzenesulphonamide] | 0.0789 µM | 1890 nM | 163 to 164 °C | 68.9 nM | 5.09 µM | – | – |
| CC(C)(C)c1ccc(C2=C/C(=C\c3ccc(F)cc3)C(=O)N2CCc2ccc(S(N)(=O)=O)cc2)cc1 [Compound 3r, (E)-4-(2-(5-(4-(tert-butyl)phenyl)-3-(4-fluorobenzylidene)-2-oxo-2,3-dihydro-1H-pyrrol-1-yl)ethyl)benzenesulphonamide] | 0.356 µM | 1260 nM | 187 to 188 °C | 418 nM | 6 µM | – | – |
| Cc1ccc(C2=C/C(=C\c3ccc(F)cc3)C(=O)N2CCc2ccc(S(N)(=O)=O)cc2)cc1 [Compound 3f, (E)-4-(2-(3-(4-fluorobenzylidene)-2-oxo-5-(p-tolyl)-2,3-dihydro-1H-pyrrol-1-yl)ethyl)benzenesulphonamide] | 0.0427 µM | 147 nM | 196 to 197 °C | 103 nM | 2.53 µM | – | – |
| NS(=O)(=O)c1ccc(CCN2C(=O)/C(=C/c3ccccc3)C=C2c2ccc(Cl)cc2)cc1 [Compound 3m, (E)-4-(2-(3-benzylidene-5-(4-chlorophenyl)-2-oxo-2,3-dihydro-1H-pyrrol-1-yl)ethyl)benzenesulphonamide] | 0.0617 µM | 780 nM | 189 to 190 °C | 54.6 nM | 2.26 µM | – | – |
| NS(=O)(=O)c1ccc(CCN2C(=O)/C(=C/c3ccc(F)cc3)C=C2c2ccccc2)cc1 [Compound 3b, (E)-4-(2-(3-(4-fluorobenzylidene)-2-oxo-5-phenyl-2,3-dihydro-1H-pyrrol-1-yl)ethyl)benzenesulphonamide] | 0.0456 µM | 81.4 nM | 170 to 171 °C | 72.7 nM | 0.369 µM | – | – |
| Cc1ccc(C2=C/C(=C\c3ccccc3)C(=O)N2CCc2ccc(S(N)(=O)=O)cc2)cc1 [Compound 3e, (E)-4-(2-(3-benzylidene-2-oxo-5-(p-tolyl)-2,3-dihydro-1H-pyrrol-1-yl)ethyl)benzenesulphonamide] | 0.0584 µM | 471 nM | 189 to 190 °C | 117 nM | 3.2 µM | – | – |
| CC(C)(C)c1ccc(C2=C/C(=C\c3ccc(Cl)cc3)C(=O)N2CCc2ccc(S(N)(=O)=O)cc2)cc1 [Compound 3s, (E)-4-(2-(5-(4-(tert-butyl)phenyl)-3-(4-chlorobenzylidene)-2-oxo-2,3-dihydro-1H-pyrrol-1-yl)ethyl)benzenesulphonamide] | 0.342 µM | 4360 nM | 196 to 197 °C | 432 nM | 7.93 µM | – | 0.34 µM |
| Cc1ccc(C2=C/C(=C\c3ccc(Cl)cc3)C(=O)N2CCc2ccc(S(N)(=O)=O)cc2)cc1 [Compound 3g, (E)-4-(2-(3-(4-chlorobenzylidene)-2-oxo-5-(p-tolyl)-2,3-dihydro-1H-pyrrol-1-yl)ethyl)benzenesulphonamide] | 0.0734 µM | 942 nM | 224 to 225 °C | 95.5 nM | 4.39 µM | – | – |
| Cc1ccc(C2=C/C(=C\c3ccc(Br)cc3)C(=O)N2CCc2ccc(S(N)(=O)=O)cc2)cc1 [Compound 3h, (E)-4-(2-(3-(4-bromobenzylidene)-2-oxo-5-(p-tolyl)-2,3-dihydro-1H-pyrrol-1-yl)ethyl)benzenesulphonamide] | 0.094 µM | 1870 nM | 233 to 234 °C | 84.2 nM | 4.19 µM | – | – |
| CCc1ccc(C2=C/C(=C\c3ccc(Br)cc3)C(=O)N2CCc2ccc(S(N)(=O)=O)cc2)cc1 [Compound 3l, (E)-4-(2-(3-(4-bromobenzylidene)-5-(4-ethylphenyl)-2-oxo-2,3-dihydro-1H-pyrrol-1-yl)ethyl)benzenesulphonamide] | 0.0563 µM | 3710 nM | 188 to 189 °C | 77.5 nM | 6.76 µM | – | – |
